In the NIST ThermoML archive (doi:10.1016/j.jct.2017.06.001):
± gives the expanded uncertainty stated by the source.

Assay: xn = mol fraction of the nth substance listed
Settings: 100 kPa, Liquid; for speed of sound: Frequency=5 MHz, Pulse-echo method; for mass density: Vibrating tube method

OCCCCCO [1,5-pentanediol] + O
Settings | mass density [kg/m3] | speed of sound [m/s]
308.15 K, x1 = 0.005 | 993.57 ± 0.52 | –
308.15 K, x1 = 0.0101 | 993.45 ± 1 | –
308.15 K, x1 = 0.0196 | 993.6 ± 1 | –
308.15 K, x1 = 0.0251 | 993.93 ± 1 | –
308.15 K, x1 = 0.0304 | 994.32 ± 1 | –
308.15 K, x1 = 0.05 | 995.28 ± 1 | –
308.15 K, x1 = 0.0769 | 995.98 ± 1 | –
308.15 K, x1 = 0.0798 | – | 1647 ± 1.2
308.15 K, x1 = 0.0835 | – | 1649.2 ± 1.2
308.15 K, x1 = 0.0879 | – | 1651.5 ± 1.2
308.15 K, x1 = 0.0918 | – | 1653.4 ± 1.2
308.15 K, x1 = 0.0964 | – | 1655.5 ± 1.2
308.15 K, x1 = 0.1002 | 996.54 ± 1.1 | 1657 ± 1.2
308.15 K, x1 = 0.106 | – | 1659 ± 1.2
308.15 K, x1 = 0.1116 | – | 1660.7 ± 1.2
308.15 K, x1 = 0.1172 | – | 1662.1 ± 1.2
308.15 K, x1 = 0.1233 | – | 1663.4 ± 1.2
308.15 K, x1 = 0.131 | – | 1664.8 ± 1.2
308.15 K, x1 = 0.1377 | – | 1665.7 ± 1.2
308.15 K, x1 = 0.1435 | – | 1666.3 ± 1.2
308.15 K, x1 = 0.1438 | 996.71 ± 1.1 | –
308.15 K, x1 = 0.1514 | – | 1666.9 ± 1.3
308.15 K, x1 = 0.161 | – | 1667.4 ± 1.3
308.15 K, x1 = 0.1675 | – | 1667.5 ± 1.3
308.15 K, x1 = 0.1737 | – | 1667.6 ± 1.3
308.15 K, x1 = 0.1787 | – | 1667.6 ± 1.3
308.15 K, x1 = 0.1838 | – | 1667.5 ± 1.3
308.15 K, x1 = 0.1845 | 996.26 ± 1.1 | –
308.15 K, x1 = 0.1893 | – | 1667.4 ± 1.3
308.15 K, x1 = 0.1953 | – | 1667.2 ± 1.3
308.15 K, x1 = 0.2011 | – | 1667 ± 1.3
308.15 K, x1 = 0.2239 | – | 1665.8 ± 1.3
308.15 K, x1 = 0.2306 | – | 1665.4 ± 1.3
308.15 K, x1 = 0.2378 | – | 1664.9 ± 1.3
308.15 K, x1 = 0.2491 | – | 1664 ± 1.3
308.15 K, x1 = 0.2503 | 995.17 ± 1.2 | –
308.15 K, x1 = 0.2581 | – | 1663.3 ± 1.3
308.15 K, x1 = 0.2683 | – | 1662.5 ± 1.4
308.15 K, x1 = 0.2832 | – | 1661.2 ± 1.4
308.15 K, x1 = 0.3 | 994.06 ± 1.2 | –
308.15 K, x1 = 0.3005 | – | 1659.5 ± 1.4
308.15 K, x1 = 0.3223 | – | 1657.4 ± 1.4
308.15 K, x1 = 0.3343 | 993.37 ± 1.3 | –
308.15 K, x1 = 0.3402 | – | 1655.5 ± 1.4
308.15 K, x1 = 0.3515 | – | 1654.3 ± 1.4
308.15 K, x1 = 0.3735 | – | 1651.8 ± 1.5
308.15 K, x1 = 0.3924 | – | 1649.6 ± 1.5
308.15 K, x1 = 0.4062 | – | 1647.9 ± 1.5
308.15 K, x1 = 0.4171 | 991.68 ± 1.4 | –
308.15 K, x1 = 0.4304 | – | 1644.9 ± 1.5
308.15 K, x1 = 0.4462 | – | 1642.8 ± 1.5
308.15 K, x1 = 0.454 | 990.78 ± 1.4 | –
308.15 K, x1 = 0.4661 | – | 1640.2 ± 1.6
308.15 K, x1 = 0.4803 | – | 1638.3 ± 1.6
308.15 K, x1 = 0.4957 | – | 1636.1 ± 1.6
308.15 K, x1 = 0.5003 | 989.8 ± 1.5 | –
308.15 K, x1 = 0.5119 | – | 1633.9 ± 1.6
308.15 K, x1 = 0.5238 | – | 1632.2 ± 1.6
308.15 K, x1 = 0.5362 | 989.1 ± 1.5 | –
308.15 K, x1 = 0.5406 | – | 1629.8 ± 1.6
308.15 K, x1 = 0.5482 | – | 1628.7 ± 1.7
308.15 K, x1 = 0.5622 | – | 1626.7 ± 1.7
308.15 K, x1 = 0.5848 | – | 1623.5 ± 1.7
308.15 K, x1 = 0.6035 | – | 1620.8 ± 1.7
308.15 K, x1 = 0.6177 | 987.6 ± 1.7 | –
308.15 K, x1 = 0.6216 | – | 1618.2 ± 1.8
308.15 K, x1 = 0.6446 | – | 1615 ± 1.8
308.15 K, x1 = 0.6478 | 987 ± 1.7 | –
308.15 K, x1 = 0.6646 | – | 1612.2 ± 1.8
308.15 K, x1 = 0.6864 | – | 1609.3 ± 1.8
308.15 K, x1 = 0.7025 | 986.1 ± 1.8 | –
308.15 K, x1 = 0.7086 | – | 1606.4 ± 1.9
308.15 K, x1 = 0.7293 | – | 1603.7 ± 1.9
308.15 K, x1 = 0.7497 | – | 1601.1 ± 1.9
308.15 K, x1 = 0.7504 | 985.3 ± 1.9 | –
308.15 K, x1 = 0.7689 | – | 1598.8 ± 2
308.15 K, x1 = 0.7904 | – | 1596.2 ± 2
308.15 K, x1 = 0.7927 | 984.6 ± 2 | –
308.15 K, x1 = 0.8099 | – | 1593.9 ± 2
308.15 K, x1 = 0.8308 | – | 1591.5 ± 2
308.15 K, x1 = 0.8561 | – | 1588.6 ± 2.1
308.15 K, x1 = 0.8605 | 983.4 ± 2.1 | –
308.15 K, x1 = 0.8812 | – | 1585.8 ± 2.1
308.15 K, x1 = 0.9004 | 982.7 ± 2.2 | –
308.15 K, x1 = 0.9098 | – | 1582.5 ± 2.2
308.15 K, x1 = 0.9326 | – | 1579.9 ± 2.2
308.15 K, x1 = 0.9496 | 981.7 ± 2.3 | –
308.15 K, x1 = 0.9519 | – | 1577.5 ± 2.2
308.15 K, x1 = 0.9707 | – | 1575.2 ± 2.3
308.15 K, x1 = 0.9812 | – | 1573.8 ± 2.3
308.15 K, x1 = 0.9864 | – | 1573.2 ± 2.3
308.15 K, x1 = 0.9944 | – | 1572.1 ± 2.3
308.15 K, x1 = 1 | 980.7 ± 2.1 | 1571.3 ± 2.3
313.15 K, x1 = 0.0002 | – | 1529.3 ± 1.2
313.15 K, x1 = 0.0004 | – | 1529.9 ± 1.2
313.15 K, x1 = 0.0006 | – | 1530.6 ± 1.2
313.15 K, x1 = 0.0009 | – | 1531.5 ± 1.2
313.15 K, x1 = 0.0013 | – | 1532.4 ± 1.2
313.15 K, x1 = 0.0016 | – | 1533.4 ± 1.2
313.15 K, x1 = 0.002 | – | 1534.5 ± 1.2
313.15 K, x1 = 0.0025 | – | 1535.9 ± 1.2
313.15 K, x1 = 0.0032 | – | 1537.6 ± 1.2
313.15 K, x1 = 0.0039 | – | 1539.6 ± 1.2
313.15 K, x1 = 0.0045 | – | 1541.2 ± 1.2
313.15 K, x1 = 0.0052 | – | 1542.9 ± 1.2
313.15 K, x1 = 0.0058 | – | 1544.6 ± 1.2
313.15 K, x1 = 0.0065 | – | 1546.5 ± 1.2
313.15 K, x1 = 0.0073 | – | 1548.3 ± 1.2
313.15 K, x1 = 0.0081 | – | 1550.4 ± 1.2
313.15 K, x1 = 0.0088 | – | 1552.1 ± 1.2
313.15 K, x1 = 0.0097 | – | 1554.2 ± 1.2
313.15 K, x1 = 0.0107 | – | 1556.6 ± 1.2
313.15 K, x1 = 0.0118 | – | 1559 ± 1.2
313.15 K, x1 = 0.013 | – | 1561.7 ± 1.2
313.15 K, x1 = 0.0142 | – | 1564.4 ± 1.2
313.15 K, x1 = 0.0153 | – | 1566.8 ± 1.2
313.15 K, x1 = 0.0164 | – | 1569.2 ± 1.2
313.15 K, x1 = 0.0176 | – | 1571.6 ± 1.2
313.15 K, x1 = 0.0187 | – | 1573.8 ± 1.2
313.15 K, x1 = 0.02 | – | 1576.4 ± 1.2
313.15 K, x1 = 0.0214 | – | 1579 ± 1.2
313.15 K, x1 = 0.0227 | – | 1581.5 ± 1.2
313.15 K, x1 = 0.0243 | – | 1584.4 ± 1.2
313.15 K, x1 = 0.0259 | – | 1587.2 ± 1.2
313.15 K, x1 = 0.0276 | – | 1590 ± 1.2
313.15 K, x1 = 0.0293 | – | 1592.8 ± 1.2
313.15 K, x1 = 0.0308 | – | 1595.3 ± 1.2
313.15 K, x1 = 0.0322 | – | 1597.4 ± 1.2
313.15 K, x1 = 0.0341 | – | 1600.2 ± 1.2
313.15 K, x1 = 0.036 | – | 1602.9 ± 1.2
313.15 K, x1 = 0.0378 | – | 1605.4 ± 1.2
313.15 K, x1 = 0.0395 | – | 1607.7 ± 1.2
313.15 K, x1 = 0.0417 | – | 1610.5 ± 1.2
313.15 K, x1 = 0.0441 | – | 1613.4 ± 1.2
313.15 K, x1 = 0.0462 | – | 1615.8 ± 1.2
313.15 K, x1 = 0.0486 | – | 1618.4 ± 1.2
313.15 K, x1 = 0.0505 | – | 1620.4 ± 1.2
313.15 K, x1 = 0.0522 | – | 1622.1 ± 1.2
313.15 K, x1 = 0.0542 | – | 1624.1 ± 1.2
313.15 K, x1 = 0.0571 | – | 1626.6 ± 1.2
313.15 K, x1 = 0.0588 | – | 1628.1 ± 1.2
313.15 K, x1 = 0.0608 | – | 1629.8 ± 1.2
313.15 K, x1 = 0.0624 | – | 1631.2 ± 1.2
313.15 K, x1 = 0.0648 | – | 1632.9 ± 1.2
313.15 K, x1 = 0.0682 | – | 1635.4 ± 1.2
313.15 K, x1 = 0.0705 | – | 1636.9 ± 1.2
313.15 K, x1 = 0.0732 | – | 1638.6 ± 1.2
313.15 K, x1 = 0.0767 | – | 1640.7 ± 1.2
313.15 K, x1 = 0.0802 | – | 1642.6 ± 1.2
313.15 K, x1 = 0.0837 | – | 1644.2 ± 1.2
313.15 K, x1 = 0.0875 | – | 1646 ± 1.2
313.15 K, x1 = 0.0918 | – | 1647.7 ± 1.2
313.15 K, x1 = 0.0975 | – | 1649.7 ± 1.2
313.15 K, x1 = 0.1013 | – | 1650.9 ± 1.2
313.15 K, x1 = 0.106 | – | 1652.2 ± 1.2
313.15 K, x1 = 0.1096 | – | 1653 ± 1.2
